Assay results taken from patent publication US10077446B2, “Glucan-encapsulated siRNA for treating type 2 diabetes mellitus” (The United States of America, as represented by THE …, priority 2013, dated 2018).

Columns and labels:
CB1R mRNA = assay: CB1R gene silencing by siRNA/EP in peritoneal elicited macrophages (PEC), qPCR; assay type: cell-based, rat
Experimental: (§1) Eight-week old ZDF rats were injected i.p. with 4% thioglycollate broth (Sigma-Aldrich). Five days following injection, the peritoneal cavity was washed with PBS and peritoneal fluid was filtered through a 70 μm diameter pore nylon mesh and centrifuged. The pellet was first treated with red blood cell lysis buffer and plated in DMEM supplemented with 10% fetal bovine serum (FBS), 50 μg/ml streptomycin and 50 units/ml penicillin. 24 hours after isolation peritoneal elicited cells (PEC) were treated with siRNA. Eighty, 160 or 240 pmoles of scrambled or CB1R siRNA (Dharmacon) was incubated with 3 nmoles EP in PBS for 15 min and added to 1×10^6 cells. 48 hours after treatment, mRNA were extracted, reversed transcribed and the degree of CB1R knock-down was analyzed by qPCR.
(§2) Total mRNA from the liver, pancreas and kidney were extracted with Trizol (Invitrogen), while total mRNA from cells was extracted using RNEASY™ Mini Kit (Qiagen). All extractions were followed by DNase I treatment (Invitrogen). Total mRNA was reverse-transcribed using the ISCRIPT™ cDNA kit (Bio-Rad). Real-time PCR was performed as described previously (Jourdan, et al. 2010 Diabetes 59:926-934) in a 96-well plate using a STEPONEPLUS™ real time PCR system (Applied Biosystems). QUANTITECT™ Primer Assays were used to detect gene expression (Table 3, which lists the primers used for rat and mice (tissue)). […]

CB2R mRNA = assay: siRNA specificity: CB2 receptor expression in peritoneal elicited macrophages (PEC); assay type: cell-based, rat; conditions: thioglycollate-induced PEC
Experimental: The specificity of each siRNA was measured in terms of knockdown of CB2 receptor expression, and a dose-response analysis of siRNA C was carried out.
as §1
as §2, with “Real-time PCR was performed as described previously (Jourdan, et al. 2010 Diabetes 59:926-934) in a 96-well plate using a STEPONEPLUS™ real time PCR system (Applied Biosystems).” left out

[1] = system: Zucker diabetic fatty (ZDF) rats; assay: 10-day i.p. treatment of ZDF rats with glucan-encapsulated CB1R siRNA (GeRPs); assay type: in vivo, rat; conditions: daily i.p. GeRPs for 10 days
Experimental: Blood glucose levels were determined using the Elite glucometer (Bayer, Pittsburgh, Pa.). […] Plasma insulin was measured using the Ultra Sensitive rat Insulin ELISA kit (Crystal Chem Inc). Hemoglobin A1c was determined using the Rat Hemoglobin A1c (HbA1c) assay kit (Crystal Chem) and c-peptide was quantified by ELISA (C-peptide (rat) ELISA, ALPCO). Serum leptin and adiponectin were determined by ELISA (B-Bridge International). α-amylase, lipase, and uric acid concentrations were determined using commercially available colorimetric kits (BioAssay Systems). TNF-α and IL-1β were determined using TNF-α ELISA Kit (for Lysates) (RayBiotech, Inc.) and IL1β Rat ELISA Kit (Abeam), respectively.
Pancreas was fixed in 10% neutral buffered formalin (NBF), embedded in paraffin and sectioned ([…]) onto glass slides. […] For detection, secondary Ab coupled to FITC or PE were used (Table 2). Images were viewed with a Fluoview FV10i confocal microscope system (Olympus). Images were then analyzed using image J software and the presence or absence of co-localization was assessed by calculating the Pearson's coefficient.
Fluorescein (FITC)-labeled glucan shells were prepared as previously described (Tesz, et al. 2011 Biochemical Journal 436:351-362). To prepare a GeRP dose for one rat, 50 nmoles siRNA (Dharmacon) were incubated with 500 nmoles Endo-Porter (Gene Tools) in 30 mM sodium acetate pH 4.8 for 15 min at RT in a final volume of 200 μl. The siRNA/Endo-Porter solution was added to 10 mg ([…]) of FITC-glucan shells and then vortexed and incubated for 1 hour. The siRNA loaded GeRPs were then resuspended in 5 ml PBS and sonicated to ensure homogeneity of the GeRP preparation. […]
Total mRNA from the liver, pancreas and kidney were extracted with Trizol (Invitrogen), while total mRNA from cells was extracted using RNEASY™ Mini Kit (Qiagen). […] QUANTITECT™ Primer Assays were used to detect gene expression (Table 3, which lists the primers used for rat and mice (tissue)). […]

sense GCAUCAAGAGCACCGUUAAUU (SEQ ID NO: 9), antisense UUAACGGUGCUCUUGAUGCUU (SEQ ID NO: 10) (listed as RNA, chemistry not given here) [siRNA C, siRNA directed against rat CB1R, selected for in vivo use]
degree of knockdown among the four siRNA sequences (CB1R mRNA; rat CB1R siRNAs A-D): greatest degree of knockdown | suppression of CB1R mRNA (CB1R mRNA; thioglycollate-induced PEC, 48 h, dose-dependent, preliminary experiments): > 95% | CB2R mRNA (CB2R mRNA): no change | glycemia and insulinemia [1]: remained normoglycemic and hyperinsulinemic | insulin expression and content in islets [1]: increased | macrophage infiltration and expression of Nlrp3-ASC, IL-1β, IL-18, MCP-1 and CB1R [1]: decreased
